Square brackets hold non-standard residues; d marks the D form. Peptide text beside a SMILES is read from it.
Experiments:
B10.PL mice with EAE = assay: EAE in B10.PL mice immunized with GP-MBP in CFA, clinical score; format: in vivo, mouse; conditions: for clinical course (in words): single i.v. 500 μg on day 14 post-immunization, observed 26 days
Method: Female B10.PL mice (6–8 wk old) were obtained from The Jackson laboratory (Bar Harbor, Me.) and housed at the Ohio State University, (Columbus, Ohio).
Mice were injected subcutaneously over four sites on the flank with an emulsion containing 200 μg of guinea-pig-MBP in CFA containing 200 μg heat killed Mycobacterium tuberculosis, Jamaica strain. Pertussis toxin (List Biological, Campbell, Calif.) at 150 ng in 0.2 ml of PBS was given intraperitoneally at the time of immunization and 48 hours later. Animals were observed daily for clinical signs and scored as follows: 1, limp tail or waddling gait with tail tonicity; 2, waddling gait with limp tail (ataxia); 2.5 ataxia with partial paralysis of one limb, 3, partial hind-limb paralysis, 3.5 full paralysis of one limb with partial paralysis of the second limb, 4, full paralysis of two limbs, 4.5 moribund and 5, death. All mice immunized with MBP (200 μg) in CFA developed clinical disease varying between ataxia and complete hind limb paralysis by day 14 post-immunization. They were then distributed randomly into six groups with mean clinical score of each group approximately the same.
Groups of mice were left untreated or injected intravenously with 500 μg of EL CD28 or RI CD28 peptide mimetics, or LCD28, RLCD28 and DCD28 peptides. The mean clinical score of untreated mice continued to increase reaching a maximum of 3.4 on day 20. Similarly the disease continued to progress in mice treated with LCD28, RLCD28 and DCD28, reaching mean maximal clinical score of 3.8 (day 18), 3.4 (day 16 ) and 3.7 (day 16) respectively.
The biological activity of synthetic CD28 peptide analogues during antigen priming in vivo in EAE was then shown. B10.PL mice immunized with GP-MBP (200 μg) in CFA were either left untreated or injected intravenously 500 μg of EL CD28 or RI CD28 peptide mimetics or LCD28, RLCD28 and DCD28 peptides on the day of immunization. The vehicle treated mice and mice treated with: LCD28, RL CD28 and D CD28 peptide had maximum disease incidence of 100%, 100%, 91.5% and 91.5% and maximum mean cumulative score per day of 1.9, 1.8, 1.7 and 2 respectively. […] The effect of RI CD28 peptide injection lasted for the duration of observation (37 days) in one experiment.

[1] = system: CD4+ LNC bearing Vα4 Vβ8.2 TCR; assay: IL-2 ELISPOT of antigen-stimulated CD4+ lymph node cells in vitro; format: cell-based, mouse; parameters: frequency of IL-2 secreting cells (in words): dose or concentration left out as unconfirmed; conditions: for number of IL-2 secreting NAc1-11 responders (in words): 75 μM and 100 μM peptide, p<0.05; for frequency of IL-2 secreting cells (in words): compared to untreated cells
Method: Augmentation of T cell proliferation following CD28 ligation is a result of its ability to increase the synthesis of IL-2. To determine whether the observed reduction in proliferation is reflected in the IL-2 secretion, the ELISPOT assay was performed.
(§1) Ninety-six well unifilter plates (Polyfiltronics, Rockland, Md.) were coated overnight at 4° C. with rat anti-mouse IL-2 (Clone JES6-1A12) (Pharmingen, Calif.) at 4 μg/ml. The plates were then washed 4× with sterile PBS and blocked with 1% BSA in DMEM for 2 h at room temperature. Subsequently, isolated single cell suspensions of CD4+ LNC (5×10^6 cells/ml) and splenocytes (10×10^6 cells/ml) were added with the antigens and CD28 peptides under the conditions as specified for the proliferation assays. After 24 h of culture in the incubator, the cells were removed by washing 3× with PBS and 4× with PBS containing Tween (1:2000) (PBST). Then biotinylated anti mouse-IL-2 (Clone JES6-5H4) (Pharmingen, Calif.) 2 μg/ml was added and incubated at 4° C. overnight. After washing 3× with PBST and 3× with PBS, goat anti-biotin antibody conjugated to alkaline phosphatase (Vector Laboratories Inc, Burlingame, Calif.) diluted to 1:1000 in PBST containing 1% BSA was added and incubated for 2 h at room temperature. The spots were visualized by adding BCIP/NBT phosphatase substrate (Kirkeguard & Perry Laboratories, Gaithesburg, Md.). Image analysis of ELISA spot assays was performed on a Series 1 Immunospot Image Analyzer (Autoimmun Diagnostika (US) Inc.) customized for analyzing ELISA spots to meet objective criteria for size, chromatic density, shape and color.

[2] = system: lymph node cells of MBP-primed mice; assay: IL-2 ELISPOT of draining lymph node cells from peptide-treated MBP-immunized mice; format: in vivo, mouse; conditions: mice treated on day 0 of immunization, ELISPOT on restimulation
Method: as §1
MBP reactive T cells that induce EAE are known to display a Th1 phenotype secreting the proinflammatory cytokines IL-2, […] and TNF-β (36. Kay, B. K., M. P. Williamson, and M. Sudol. 2000. Faseb J 14, no. 2:231). ELISPOT assay was used to assess in vitro cytokine production by draining lymph node cells and splenocytes upon restimulation from in vivo MBP-primed T cells. Mice were treated as described in Example 3, on day 0 of immunization.

[3] = single i.v. 500 μg on the day of immunization

Row | Structure (SMILES) | clinical course (in words) (B10.PL mice with EAE) | maximum disease incidence (B10.PL mice with EAE; [3]) [%] | maximum mean cumulative score per day (B10.PL mice with EAE; [3]) | number of IL-2 secreting NAc1-11 responders (in words) [1] | frequency of IL-2 secreting cells (in words) [1] | frequency of IL-2 secreting lymph node cells [2] | duration of effect of injection (B10.PL mice with EAE; single i.v. 500 μg on the day of immunization, one experiment, duration of observation) [days]
1 | CC[C@H](C)[C@H](NC(=O)[C@@H](NC(=O)CNC(=O)[C@H](CC(N)=O)NC(=O)[C@H](CO)NC(=O)[C@H](CCCNC(=N)N)NC(=O)[C@H](CCC(=O)O)NC(=O)[C@H](CC(N)=O)NC(=O)[C@H](CC(=O)O)NC(=O)[C@H](CC(C)C)NC(=O)[C@H](Cc1ccc(O)cc1)NC(=O)[C@@H]1CCCN1C(=O)[C@@H]1CCCN1C(=O)[C@@H]1CCCN1C(=O)[C@H](Cc1ccc(O)cc1)NC(=O)[C@H](CCSC)NC(=O)[C@H](Cc1ccccc1)NC(=O)[C@H](CCC(=O)O)NC(=O)[C@@H](NC(=O)[C@H](CCCCN)NC(C)=O)[C@@H](C)CC)[C@@H](C)O)C(N)=O [EL CD28] (Ac-KIEFMYPPPYLDNERSNGTI-NH2) | continued to show clinical improvement | 70 | 1.1 | Significant decrease | significantly reduced | 2776+/−53.5 | –
2 | CC[C@@H](C)[C@@H](NC(C)=O)C(=O)N[C@@H](C(=O)NCC(=O)N[C@H](CC(N)=O)C(=O)N[C@H](CO)C(=O)N[C@H](CCCNC(=N)N)C(=O)N[C@H](CCC(=O)O)C(=O)N[C@H](CC(N)=O)C(=O)N[C@H](CC(=O)O)C(=O)N[C@H](CC(C)C)C(=O)N[C@H](Cc1ccc(O)cc1)C(=O)N1CCC[C@@H]1C(=O)N1CCC[C@@H]1C(=O)N1CCC[C@@H]1C(=O)N[C@H](Cc1ccc(O)cc1)C(=O)N[C@H](CCSC)C(=O)N[C@H](Cc1ccccc1)C(=O)N[C@H](CCC(=O)O)C(=O)N[C@@H](C(=O)N[C@H](CCCCN)C(N)=O)[C@H](C)CC)[C@H](C)O [RI CD28] (Ac-[dI][dT]G[dN][dS][dR][dE][dN][dD][dL][dY][dP][dP][dP][dY][dM][dF][dE][dI][dK]-NH2) | continued to show clinical improvement | 60 | 0.74 | Significant decrease | significantly reduced | 1753+/−37.7 | 37

From patent US7220822B2, “CD28 mimetics for blocking T cell mediated immune reactions” (The Ohio State University, priority 2000, dated 2007)
